Assay [1] has as its system ENR+CD organoids (ISC to Paneth cell differentiation). Description: Primary screen: basal (non-stimulated) lysozyme secretion LYZ.NS, 2.5-D 384-well ENR+CD organoid differentiation. The assay is classed as cell-based, mouse. As to conditions: primary screen; for Z.LYZ.NS: standard z score. The text has this:
(§1) High-throughput screening.

The test system is the same in assay [2]. The assay can be described thus: Primary screen: CCh-stimulated lysozyme secretion LYZ.S, 2.5-D 384-well ENR+CD organoid differentiation. Type of assay: cell-based, mouse. As to conditions: primary screen.
Description: as §1

For the next assay, the system named is ENR+CD organoids. Description: Primary screen: ATP (CellTiter-Glo 3D, CTG) cell number/viability, 2.5-D 384-well ENR+CD organoids.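 As to all read-outs here: compounds given at plating and again on day 3 over a 6-day differentiation from ENR+CV stem-cell-enriched precursors, ATP measured on day 6, plate median as control.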 The note with it: for Dose.FC.CTG / Z.CTG (standard z score) / Z.CTG / Dose.FC.CTG (log2 fold change): primary screen; for Z.CTG: standard z score.
Setting [3] is: dose 0.08 uM, FC vs plate median.
The mark [4] stands for this setting: dose 0.40 uM, FC vs plate median.
[5] abbreviates: dose 2.00 uM, FC vs plate median.
Where [6] appears, read: dose 10.00 uM, FC vs plate median.
[7] abbreviates: dose 0.08 uM, FC relative to plate median.
The mark [8] stands for this setting: dose 0.40 uM, FC relative to plate median.
The mark [9] stands for this setting: dose 2.00 uM, FC relative to plate median.
[10] abbreviates: dose 10.00 uM, FC relative to plate median.

As for `CC(C)C[C@@H](C(=O)N[C@H](C(=O)OC1CCCC1)c1ccccc1)[C@H](O)C(=O)NO` [Tosedostat (CHR2797)], the Dose.FC.LYZ.NS in assay [1] (dose 0.08 uM) is −0.002 log2 fold change; in assay [1] (dose 0.40 uM), −0.106 log2 fold change; in assay [1] (dose 2.00 uM) it was −0.050 log2 fold change; in assay [1] (dose 10.00 uM), −0.172 log2 fold change. In addition, the “Z.LYZ.NS (standard z score)” value was −0.022 in assay [1] (dose 0.08 uM), −0.925 in assay [1] (dose 0.40 uM), −0.432 in assay [1] (dose 2.00 uM) and −1.499 in assay [1] (dose 10.00 uM). Moreover, the Dose.FC.LYZ.S in assay [2] (dose 0.08 uM) is listed as −0.027 log2 fold change; in assay [2] (dose 0.40 uM), −0.134 log2 fold change; in assay [2] (dose 2.00 uM) it was −0.128 log2 fold change; in assay [2] (dose 10.00 uM), −0.276 log2 fold change. In addition, the SSMD.CTG with ENR+CD organoids (Table 5A primary screen, strictly standardized mean difference, four lines per treatment = four doses, dose not given) is −0.311. Also, the Dose.FC.CTG in the assay with ENR+CD organoids (dose 0.08 uM) is −0.097 log2 fold change; with ENR+CD organoids (dose 0.40 uM) it was 0.051 log2 fold change; with ENR+CD organoids (dose 2.00 uM), −0.201 log2 fold change; in the assay on ENR+CD organoids (dose 10.00 uM), −0.468 log2 fold change. Also, the “Z.CTG (standard z score)” value with ENR+CD organoids (dose 0.08 uM) is on record as −0.232; in the assay on ENR+CD organoids (dose 0.40 uM) it was 0.123; in the assay on ENR+CD organoids (dose 2.00 uM), −0.480; with ENR+CD organoids (dose 10.00 uM) it was −1.117.

As to `NC(=O)N1c2ccccc2CC(=O)c2ccccc21` [Oxcarbazepine], the Z.LYZ.NS in assay [1] (dose 0.08 uM) is reported as 0.035; in assay [1] (dose 0.40 uM) it was −0.001; in assay [1] (dose 2.00 uM), 0.349; in assay [1] (dose 10.00 uM), −0.527. For the same molecule, the Dose.FC.LYZ.NS in assay [1] (setting [3]) is recorded as 0.004 log2 fold change; in assay [1] (setting [4]), 0.000 log2 fold change; in assay [1] (setting [5]) it was 0.040 log2 fold change; in assay [1] (setting [6]), −0.061 log2 fold change. In addition, the Dose.FC.LYZ.S in assay [2] (setting [3]) is given as 0.043 log2 fold change; in assay [2] (setting [4]) it was 0.154 log2 fold change; in assay [2] (setting [5]), 0.042 log2 fold change; in assay [2] (setting [6]), −0.057 log2 fold change. The Dose.FC.CTG in the assay with ENR+CD organoids (setting [3]) is recorded as −0.021 log2 fold change; with ENR+CD organoids (setting [4]) it was −0.103 log2 fold change; in the assay on ENR+CD organoids (setting [5]), −0.082 log2 fold change; in the assay on ENR+CD organoids (setting [6]), −0.150 log2 fold change.

For `CN1CCN(c2nc(C3=C(c4c[nH]c5ccccc45)C(=O)NC3=O)c3ccccc3n2)CC1` [Sotrastaurin], the Dose.FC.LYZ.NS in assay [1] (setting [7]) is on record as 0.193 log2 fold change; in assay [1] (setting [8]), −0.065 log2 fold change; in assay [1] (setting [9]), 0.014 log2 fold change; in assay [1] (setting [10]), −0.126 log2 fold change. For the same molecule, the Z.LYZ.NS in assay [1] (dose 0.08 uM) is 1.678; in assay [1] (dose 0.40 uM) it was −0.567; in assay [1] (dose 2.00 uM), 0.125; in assay [1] (dose 10.00 uM) it was −1.101. In addition, the Dose.FC.LYZ.S is given as 0.097 log2 fold change in assay [2] (setting [7]), −0.043 log2 fold change in assay [2] (setting [8]), −0.085 log2 fold change in assay [2] (setting [9]) and −0.164 log2 fold change in assay [2] (setting [10]). In addition, the Dose.FC.CTG is reported as 0.010 log2 fold change in the assay on ENR+CD organoids (setting [7]), −0.120 log2 fold change in the assay on ENR+CD organoids (setting [8]), −0.272 log2 fold change in the assay with ENR+CD organoids (setting [9]) and −0.242 log2 fold change in the assay on ENR+CD organoids (setting [10]).

For SNS-314 Mesylate, the Dose.FC.LYZ.NS in assay [1] (setting [7]) is on record as −0.071 log2 fold change; in assay [1] (setting [8]), −0.059 log2 fold change; in assay [1] (setting [9]), −0.128 log2 fold change; in assay [1] (setting [10]), −0.127 log2 fold change. Also, the Z.LYZ.NS is listed as −0.620 in assay [1] (dose 0.08 uM), −0.515 in assay [1] (dose 0.40 uM), −1.111 in assay [1] (dose 2.00 uM) and −1.109 in assay [1] (dose 10.00 uM). The Dose.FC.LYZ.S in assay [2] (setting [7]) is −0.115 log2 fold change; in assay [2] (setting [8]), −0.103 log2 fold change; in assay [2] (setting [9]), −0.133 log2 fold change; in assay [2] (setting [10]), −0.198 log2 fold change. Also, the Dose.FC.CTG is −0.666 log2 fold change in the assay on ENR+CD organoids (setting [7]), −0.777 log2 fold change in the assay with ENR+CD organoids (setting [8]), −0.478 log2 fold change in the assay with ENR+CD organoids (setting [9]) and −0.620 log2 fold change with ENR+CD organoids (setting [10]). Moreover, the Z.CTG in the assay with ENR+CD organoids (dose 0.08 uM) was −1.591; in the assay on ENR+CD organoids (dose 0.40 uM) it was −1.857; in the assay with ENR+CD organoids (dose 2.00 uM) it was −1.142; with ENR+CD organoids (dose 10.00 uM), −1.480.

Consider `CNCc1ccc(-c2cc(-c3nc(-c4ccc(S(=O)(=O)C(C)C)cc4)cnc3N)on2)cc1` [VE-822], for which the Dose.FC.LYZ.NS in assay [1] (dose 0.08 uM) is given as 0.058 log2 fold change; in assay [1] (dose 0.40 uM), −0.040 log2 fold change; in assay [1] (dose 2.00 uM), −0.220 log2 fold change; in assay [1] (dose 10.00 uM), −0.210 log2 fold change. Moreover, the “Z.LYZ.NS (standard z score)” value in assay [1] (dose 0.08 uM) is given as 0.505; in assay [1] (dose 0.40 uM), −0.351; in assay [1] (dose 2.00 uM) it was −1.913; in assay [1] (dose 10.00 uM), −1.825. The Dose.FC.LYZ.S was 0.104 log2 fold change in assay [2] (dose 0.08 uM), −0.064 log2 fold change in assay [2] (dose 0.40 uM), −0.302 log2 fold change in assay [2] (dose 2.00 uM) and −0.321 log2 fold change in assay [2] (dose 10.00 uM). Further, the Dose.FC.CTG in the assay with ENR+CD organoids (dose 0.08 uM) was −0.147 log2 fold change; in the assay on ENR+CD organoids (dose 0.40 uM), −0.287 log2 fold change; with ENR+CD organoids (dose 2.00 uM) it was −0.717 log2 fold change; with ENR+CD organoids (dose 10.00 uM), −1.763 log2 fold change.

In the case of `CN1CCC(CNc2ccc3ncc(-c4cccc(OC(F)(F)F)c4)n3n2)CC1` [SGI-1776free base], the Dose.FC.LYZ.NS is 0.116 log2 fold change in assay [1] (setting [7]), 0.042 log2 fold change in assay [1] (setting [8]), 0.012 log2 fold change in assay [1] (setting [9]) and −0.205 log2 fold change in assay [1] (setting [10]). The Z.LYZ.NS in assay [1] (dose 0.08 uM) is 1.013; in assay [1] (dose 0.40 uM), 0.362; in assay [1] (dose 2.00 uM), 0.108; in assay [1] (dose 10.00 uM), −1.784. Further, the Dose.FC.LYZ.S in assay [2] (setting [7]) was 0.159 log2 fold change; in assay [2] (setting [8]), 0.088 log2 fold change; in assay [2] (setting [9]) it was 0.011 log2 fold change; in assay [2] (setting [10]), −0.317 log2 fold change. For the same molecule, the Dose.FC.CTG in the assay with ENR+CD organoids (setting [7]) was 0.170 log2 fold change; with ENR+CD organoids (setting [8]), 0.278 log2 fold change; in the assay with ENR+CD organoids (setting [9]) it was 0.212 log2 fold change; with ENR+CD organoids (setting [10]) it was −1.033 log2 fold change. The Z.CTG was 0.407 in the assay on ENR+CD organoids (dose 0.08 uM), 0.665 in the assay on ENR+CD organoids (dose 0.40 uM), 0.506 with ENR+CD organoids (dose 2.00 uM) and −2.468 in the assay with ENR+CD organoids (dose 10.00 uM).

As for `N#C[C@@H]1CCCN1C(=O)CNC12CC3CC(CC(O)(C3)C1)C2` [Vildagliptin (LAF-237)], the Dose.FC.LYZ.NS in assay [1] (dose 0.08 uM) turned out to be 0.148 log2 fold change; in assay [1] (dose 0.40 uM), 0.230 log2 fold change; in assay [1] (dose 2.00 uM), 0.170 log2 fold change; in assay [1] (dose 10.00 uM), 0.097 log2 fold change. Besides, the “Z.LYZ.NS (standard z score)” value in assay [1] (dose 0.08 uM) is listed as 1.285; in assay [1] (dose 0.40 uM), 2.004; in assay [1] (dose 2.00 uM), 1.478; in assay [1] (dose 10.00 uM) it was 0.846. In addition, the Dose.FC.LYZ.S in assay [2] (dose 0.08 uM) was determined as 0.099 log2 fold change; in assay [2] (dose 0.40 uM), 0.113 log2 fold change; in assay [2] (dose 2.00 uM), 0.038 log2 fold change; in assay [2] (dose 10.00 uM) it was 0.013 log2 fold change. For the same molecule, the Dose.FC.CTG came to 0.232 log2 fold change in the assay on ENR+CD organoids (dose 0.08 uM), 0.229 log2 fold change in the assay with ENR+CD organoids (dose 0.40 uM), 0.150 log2 fold change in the assay on ENR+CD organoids (dose 2.00 uM) and 0.339 log2 fold change with ENR+CD organoids (dose 10.00 uM). For the same molecule, the “Z.CTG (standard z score)” value in the assay on ENR+CD organoids (dose 0.08 uM) is 0.553; in the assay with ENR+CD organoids (dose 0.40 uM) it was 0.547; in the assay on ENR+CD organoids (dose 2.00 uM) it was 0.358; in the assay with ENR+CD organoids (dose 10.00 uM), 0.811.

As for `CCN(CC)CC(=O)Nc1c(C)cccc1C` [Lidocaine], the “Dose.FC.LYZ.NS (log2 fold change)” value in assay [1] (dose 0.08 uM) is recorded as 0.106; in assay [1] (dose 0.40 uM), 0.017; in assay [1] (dose 2.00 uM), 0.001; in assay [1] (dose 10.00 uM) it was 0.019. Further, the “Z.LYZ.NS (standard z score)” value in assay [1] (dose 0.08 uM) was 0.927; in assay [1] (dose 0.40 uM), 0.144; in assay [1] (dose 2.00 uM), 0.008; in assay [1] (dose 10.00 uM), 0.167. Besides, the “Dose.FC.LYZ.S (log2 fold change)” value is reported as 0.083 in assay [2] (dose 0.08 uM), 0.026 in assay [2] (dose 0.40 uM), −0.038 in assay [2] (dose 2.00 uM) and −0.009 in assay [2] (dose 10.00 uM). Further, the “Dose.FC.CTG (log2 fold change)” value in the assay on ENR+CD organoids (dose 0.08 uM) is reported as −0.079; in the assay with ENR+CD organoids (dose 0.40 uM), −0.153; with ENR+CD organoids (dose 2.00 uM) it was 0.034; with ENR+CD organoids (dose 10.00 uM), −0.256.

The record behind these values is patent US20220323406A1, “METHODS AND COMPOSITIONS FOR DIFFERENTIATING STEM CELLS” (Massachusetts Institute of Technology, priority 2019, published 2022).
